Counter-ions that a name gives are not always drawn.
Tests used:
[1] = test system: Polyclonal rabbit IgG (rIgG); experiment: Native fluorescence assay of rabbit IgG denaturation (ex 280 nm, emission ratio 376/360 nm); type: biochemical; details: for denaturing power (in words): 5 mM concentration and lower temperatures
Description: To determine the effectiveness of the guanidine and amidine reagents from the table of FIG. 8, a native fluorescence assay was established using rabbit IgG. Upon excitation at 280 nm, emission was measured ratiometrically at two wavelengths 376 and 360 nm.
Fluorescence spectra were acquired at an excitation wavelength of 280 nm and emission intensity is reported as a ratio of 376 nm intensity divided by 360 nm intensity. An increase in 1376/1360 denotes a change in the microenvironment of tryptophan residues—specifically, their change from a hydrophobically surrounded native state to a solvent exposed denatured state.
The IgG sample was subjected to concentrations of 0.5, 5, and 50 mM and temperatures of either ambient, 50° C., 70° C., or 90° C. […] Fluorescence was performed with an excitation wavelength of 280 nm.
Polyclonal rabbit IgG (rIgG) was used as a test protein to evaluate the denaturation power of various reagents. The rIgG protein was dissolved and diluted to a concentration of 0.25 mg/mL with water, while also being subjected to the chemical compound of interest and an incubation at either room temperature, 50° C., 70° C., or 90° C. To generate a positive control for complete denaturation, the rIgG sample was subjected to room temperature incubations with guanidine hydrochloride at 0 and up to 8M concentrations. Native fluorescence of the resulting sample was thereafter measured using an excitation wavelength of 280 nm. Emission intensities at 376 and 360 nm were subsequently detected and reported as a ratio as a sensitive measure of rIgG denaturation and a change in the local environment of tryptophan residues.
Fluorescence intensity ratios obtained after incubation with reagent #1, reagent #2, and reagent #3 and either ambient, 50° C., 70° C., or 90° C. temperatures are provided in FIG. 3. Likewise, fluorescence intensity ratios obtained after incubation with reagent #4, reagent #5, and reagent #6 and either ambient, 50° C., 70° C., or 90° C. temperatures are provided in FIG. 4. In all experiments, the substituted guanidine and amidines were titrated to a neutral pH and their protonated ionization states prior to being incubated with protein sample.

[2] = biological target: T1, Orencia® (abatacept), a glycosylated fusion protein (Homo sapiens, UniProt P16410, C103S); experiment: Denaturation then PNGase F deglycosylation of abatacept, intact protein RPLC-MS; type: biochemical; details: 5 mM reagent, short 90° C. incubation, no desalting, PNGase F at 50° C.
T1 construct: modified human IgG1 Fc (hinge-CH2-CH3) fusion partner; purchased Bristol-Myers Squibb
T1 sequence (P16410 with tags, fused parts or gaps limits assumed, stated change not applied): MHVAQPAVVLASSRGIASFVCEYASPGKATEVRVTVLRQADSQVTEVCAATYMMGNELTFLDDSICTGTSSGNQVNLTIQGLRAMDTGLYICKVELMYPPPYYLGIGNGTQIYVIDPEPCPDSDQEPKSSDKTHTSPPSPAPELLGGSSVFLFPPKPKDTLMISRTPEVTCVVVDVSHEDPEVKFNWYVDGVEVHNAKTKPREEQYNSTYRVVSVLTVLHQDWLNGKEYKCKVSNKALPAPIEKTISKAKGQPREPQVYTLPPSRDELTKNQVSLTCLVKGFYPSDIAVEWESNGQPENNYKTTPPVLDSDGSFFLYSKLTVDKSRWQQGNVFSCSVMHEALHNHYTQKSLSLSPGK
Description: An Orencia® stock solution (20 mg/mL) was diluted 10 times with water to a concentration of 2 mg/mL, followed by the addition of 10 μL diluted sample into three 1 mL polypropylene tubes. Four (4) μL of 50 mM guanidino reagents, tetramethylguanidine (reagent #1), t-butyl tetramethylguanidine (reagent #2), and trazabicyclodecene (reagent #3), were added into each tube, separately. Finally, 8 μL of 50 mM HEPES, pH 7.9 buffer was transferred into each tube along with 16.4 μL of water.
The contents of each well were subsequently mixed by aspiration. Each sample was then incubated at 90° C., 3 minutes for denaturation and then removed from the heating block to cool at room temperature for 3 minutes. Each denatured glycoprotein sample was treated with 1.6 μL of GlycoWorks Rapid PNGase F at 50° C. for 5 minutes. Aliquots containing 10 μL of each deglycosylated sample were submitted for intact protein analysis, while the remaining 30 μL samples were subjected to RapiFluor-MS™ labeling and released glycan analysis (see details in Example 3).
Additionally, two controls were applied. For a positive control (FIG. 5D), 5 μL of Orencia® stock solution was mixed with 45 μL of 8M guanidine hydrochloride at room temperature, followed by desalting with a Thermo Zeba spin column. The resulting, 10 μL desalted sample was mixed with 8 μL of 50 mM HEPES, pH 7.9, 20.4 μL of water and 1.6 μL of GlycoWorks Rapid PNGase F before being incubated at 50° C. for 5 min to perform deglycosylation. Ten (10) μL of this deglycosylated protein, as well as 10 μL of 2 mg/mL Orencia® solution without denaturation, were tested as positive and negative controls of intact protein analysis. LCMS settings and parameters used for intact protein analysis are listed below in Table 1.

Orencia® (abatacept) = biological target: T2, Orencia® (abatacept) (Homo sapiens, UniProt P16410, C103S); experiment: N-glycan release and RapiFluor-MS labeling after denaturation, LC-FLR-MS profile; details: 5 mM tetramethylguanidine denatured Orencia®, no desalting
T2 construct: modified human IgG1 Fc (hinge-CH2-CH3) fusion partner; purchased Bristol-Myers Squibb
T2 sequence (P16410 with tags, fused parts or gaps limits assumed, stated change not applied): as above
Description: In the example of FIG. 6, abatacept was denatured with 5 mM tetramethylguanidine at a 90° C. and incubated at 50° C. with PNGase F. The resulting N-glycosylamines were there derivatized with RapiFluor-MS™ and cleaned up with solid phase extraction using a GlycoWorks RapiFluor-MS™ N-glycan kit (according to manufacturer recommendations; Waters Technologies Corporation, Milford, Mass.). RapiFluor-MS™ labeled N-glycans from this tetramethylguanidinium denatured sample were thereafter profiled by […].
Thirty (30) μL of deglycosylated protein was labeled with 12 μL of RapiFluor-MS™ solution (68.7 mg/mL in DMF) for 5 minutes at room temperature, followed by dilution with 358 μL of acetonitrile for SPE clean-up. The total of 400 μL mixed solution was transferred to a pre-conditioned HILIC μElution SPE plate staged for operation on a positive pressure manifold with 3 psi pressurization. Each sample was loaded onto the plate and then twice washed with 600 μL of 1:9:90 (v/v/v) formic acid/water/acetonitrile. Finally, released glycans were eluted from individual wells with three, 30 μL of 200 mM ammonium acetate in 5% acetonitrile. Eluate was collected and transferred in LC vials for analysis. LC-FLR-MS settings and parameters used in these experiments are listed below in Table 2.

interference in LC-FLR-MS data of RapiFluor-MS labeled N-glycans (Orencia® (abatacept)) | Structure (SMILES) | fluorescence intensity ratio of rIgG ([1]; 1% (w/v) RapiGest SF [~24 mM], suggests only partial denaturation) | denaturing power (in words) [1] | extent of PNGase F deglycosylation of abatacept after denaturation [2] | fluorescence intensity ratio of rIgG ([1]; 8M guanidine, room temperature, native state rIgG approximately 1.3)
– | CCCCCCCCCCCC1(C)OCC(COCCCS(=O)(=O)[O-])O1.[Na+] (stereo not drawn) [RapiGest SF] | approximately 1.4 | – | – | –
no significant interferences | CN(C)C(=N)N(C)C [Reagent 1, 1,1,3,3-tetramethylguanidine] | – | significantly reduced | as extensively deglycosylated as the guanidinium hydrochloride denatured controls | –
– | CN(C)C(=NC(C)(C)C)N(C)C [Reagent 2, 2-tert-butyl-1,1,3,3-tetramethylguanidine] | – | significantly reduced | as extensively deglycosylated as the guanidinium hydrochloride denatured controls | –
– | C1CN=C2NCCCN2C1 [Reagent 3, 1,5,7-triazabicyclo[4.4.0]dec-5-ene] | – | significantly reduced | as extensively deglycosylated as the guanidinium hydrochloride denatured controls | –
– | N=C(N)N [guanidine, guanidine hydrochloride, reference compound] | – | – | – | approximately 1.6

From patent US20210388022A1, “SUBSTITUTED GUANIDINO AND AMIDINO REAGENTS AND THE USE THEREOF FOR PROTEIN DENATURATION” (Waters Technologies Corporation, priority 2020, published 2021)
